From patent US10273236B2, “Macrocyclic factor XIa inhibitors bearing heterocyclic groups” (Bristol-Myers Squibb Company, priority 2014, dated 2019)

What was measured:
[1] = molecular target: T1, purified human Factor XIa (Homo sapiens, UniProt P03951); assay: Factor XIa inhibition assay, chromogenic substrate S-2366 (Ki); format: biochemical
T1 construct: purchased Haematologic Technologies
Experimental: (§1) The effectiveness of compounds of the present invention as inhibitors of the coagulation Factors XIa, VIIa, IXa, Xa, XIIa, plasma kallikrein or thrombin, can be determined using a relevant purified serine protease, respectively, and an appropriate synthetic substrate. The rate of hydrolysis of the chromogenic or fluorogenic substrate by the relevant serine protease was measured both in the absence and presence of compounds of the present invention. […] A decrease in the rate of absorbance or fluorescence change in the presence of inhibitor is indicative of enzyme inhibition. Such methods are known to one skilled in the art. The results of this assay are expressed as the inhibitory constant, Ki.
Factor XIa determinations were made in 50 mM HEPES buffer at pH 7.4 containing 145 mM NaCl, 5 mM KCl, and 0.1% PEG 8000 (polyethylene glycol; JT Baker or Fisher Scientific). Determinations were made using purified human Factor XIa at a final concentration of 25-200 pM (Haematologic Technologies) and the synthetic substrate S-2366 (pyroGlu-Pro-Arg-pNA; Chromogenix or AnaSpec) at a concentration of 0.0002-0.001 M.
(§2) Values of Ki were determined by allowing the protease to react with the substrate in the presence of the inhibitor.
(§3) Reactions were allowed to go for periods of 20-180 minutes (depending on the protease) and the velocities (rate of absorbance or fluorescence change versus time) were measured.
(§4) The following relationships were used to calculate Ki values: (Vmax*S)/(Km+S) (vo−vs)/vs=I/(Ki(1+S/Km)) for a competitive inhibitor with one binding site; or vs/vo=A+((B−A)/1+((IC50/(I)^n))); and Ki=IC50/(1+S/Km) for a competitive inhibitor where: […]

[2] = molecular target: T2, purified human plasma kallikrein (Homo sapiens, UniProt P03952); assay: Plasma kallikrein inhibition assay, chromogenic substrate S-2302 (Ki); format: biochemical
T2 construct: Plasma prekallikrein is a zymogen of a trypsin-like serine protease; purchased Enzyme Research Laboratories
Experimental: as §1
Plasma kallikrein determinations were made in 0.1 M sodium phosphate buffer at a pH of 7.5 containing 0.1-0.2 M sodium chloride and 0.5% PEG 8000. Determinations were made using purified human plasma kallikrein (Enzyme Research Laboratories) at a final assay concentration of 200 pM and the synthetic substrate S-2302 (H-(D)-Pro-Phe-Arg-pNA; Chromogenix) at a concentration of 0.00008-0.0004 M.
as §2, §3, §4

T1 sequence (P03951 388-625 limits assumed): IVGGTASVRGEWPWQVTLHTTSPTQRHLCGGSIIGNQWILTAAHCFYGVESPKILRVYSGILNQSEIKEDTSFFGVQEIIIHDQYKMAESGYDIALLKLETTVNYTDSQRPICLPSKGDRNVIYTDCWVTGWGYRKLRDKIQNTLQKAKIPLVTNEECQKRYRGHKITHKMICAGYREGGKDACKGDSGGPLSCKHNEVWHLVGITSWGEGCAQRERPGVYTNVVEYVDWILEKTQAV
T1 sequence (P03951 19-387 partner limits assumed): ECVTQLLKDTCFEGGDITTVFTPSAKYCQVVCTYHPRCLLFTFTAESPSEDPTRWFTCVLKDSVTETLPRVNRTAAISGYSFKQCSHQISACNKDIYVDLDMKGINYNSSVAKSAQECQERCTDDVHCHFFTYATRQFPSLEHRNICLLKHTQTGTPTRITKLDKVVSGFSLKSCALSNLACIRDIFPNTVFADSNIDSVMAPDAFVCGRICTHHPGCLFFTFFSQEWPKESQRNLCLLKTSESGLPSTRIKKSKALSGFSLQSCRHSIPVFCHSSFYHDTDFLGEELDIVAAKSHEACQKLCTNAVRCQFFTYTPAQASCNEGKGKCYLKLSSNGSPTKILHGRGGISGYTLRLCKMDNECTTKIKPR
T2 sequence (P03952 391-638 limits assumed): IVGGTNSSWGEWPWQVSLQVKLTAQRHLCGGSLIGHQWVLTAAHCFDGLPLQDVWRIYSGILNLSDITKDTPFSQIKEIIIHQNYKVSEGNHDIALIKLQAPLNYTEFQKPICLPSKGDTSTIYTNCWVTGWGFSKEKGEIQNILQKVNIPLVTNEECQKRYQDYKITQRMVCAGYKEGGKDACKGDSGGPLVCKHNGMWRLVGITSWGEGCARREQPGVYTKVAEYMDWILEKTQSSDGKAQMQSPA
T2 sequence (P03952 20-390 partner limits assumed): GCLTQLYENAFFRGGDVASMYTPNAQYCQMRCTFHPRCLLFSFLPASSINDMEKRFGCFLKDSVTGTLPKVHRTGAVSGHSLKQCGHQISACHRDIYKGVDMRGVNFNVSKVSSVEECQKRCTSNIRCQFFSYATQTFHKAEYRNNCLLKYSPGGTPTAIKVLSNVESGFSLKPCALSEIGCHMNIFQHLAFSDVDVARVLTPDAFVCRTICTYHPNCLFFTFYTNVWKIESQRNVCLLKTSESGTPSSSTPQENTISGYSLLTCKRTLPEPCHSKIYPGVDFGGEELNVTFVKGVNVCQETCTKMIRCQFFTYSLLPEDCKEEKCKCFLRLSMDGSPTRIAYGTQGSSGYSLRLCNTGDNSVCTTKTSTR

| SMILES | Ki [1] [nM] | Ki [2] [nM] |
| --- | --- | --- |
| C[C@@H]1CCC[C@H](N2CCC(c3cc(Cl)ccc3Br)=CC2=O)c2cc(ccn2)-c2c(cnn2C)NC1=O [Example 37, (9R,13S)-13-[4-(2-bromo-5-chlorophenyl)-6-oxo-1,2,3,6-tetrahydropyridin-1-yl]-3,9-dimethyl-3,4,7,15-tetraazatricyclo[12.3.1.0^2,6]octadeca-1(18),2(6),4,14,16-pentaen-8-one] | 4.7 | 16 |
| C[C@@H]1CCC[C@H](N2CCC(c3cc(Cl)ccc3-c3cnn(C(F)F)c3)=CC2=O)c2cc(ccn2)-c2c(cnn2C)NC1=O [Example 38, (9R,13S)-13-(4-{5-chloro-2-[1-(difluoromethyl)-1H-pyrazol-4-yl]phenyl}-6-oxo-1,2,3,6-tetrahydropyridin-1-yl)-3,9-dimethyl-3,4,7,15-tetraazatricyclo[12.3.1.0^2,6]octadeca-1(18),2(6),4,14,16-pentaen-8-one] | 1.8 | 120 |
| C[C@@H]1CCC[C@H](N2CCC(c3c(C#N)ccc(Cl)c3F)=CC2=O)c2cc(ccn2)-c2c(cnn2C)NC1=O [Example 39, 4-chloro-2-{1-[(9R,13S)-3,9-dimethyl-8-oxo-3,4,7,15-tetraazatricyclo[12.3.1.0^2,6]octadeca-1(18),2(6),4,14,16-pentaen-13-yl]-6-oxo-1,2,3,6-tetrahydropyridin-4-yl}-3-fluorobenzonitrile] | 1.1 | 120 |
| C[C@@H]1CCC[C@H](N2CCC(c3cc(Cl)ccc3-n3cc(C(F)(F)F)nn3)=CC2=O)c2cc(ccn2)-c2c(cnn2C)NC1=O [Example 40, (9R,13S)-13-(4-{5-chloro-2-[4-(trifluoromethyl)-1H-1,2,3-triazol-1-yl]phenyl}-6-oxo-1,2,3,6-tetrahydropyridin-1-yl)-3,9-dimethyl-3,4,7,15-tetraazatricyclo[12.3.1.0^2,6]octadeca-1(18),2(6),4,14,16-pentaen-8-one] | 0.1 | 6 |
| C[C@@H]1CCC[C@H](N2CCC(c3c(-c4cnn(C(F)F)c4)ccc(Cl)c3F)=CC2=O)c2cc(ccn2)-c2c(cnn2C)NC1=O [Example 41, (9R,13S)-13-(4-{3-chloro-6-[1-(difluoromethyl)-1H-pyrazol-4-yl]-2-fluorophenyl}-6-oxo-1,2,3,6-tetrahydropyridin-1-yl)-3,9-dimethyl-3,4,7,15-tetraazatricyclo[12.3.1.0^2,6]octadeca-1(18),2(6),4,14,16-pentaen-8-one] | 1 | 34 |
| [2H]C([2H])([2H])n1ncc2c1-c1ccnc(c1)[C@@H](N1CCC(c3cc(Cl)ccc3-n3cc(C(F)(F)F)nn3)=CC1=O)CCC[C@@H](C)C(=O)N2 [Example 42, (9R,13S)-13-(4-{5-chloro-2-[4-(trifluoromethyl)-1H-1,2,3-triazol-1-yl]phenyl}-6-oxo-1,2,3,6-tetrahydropyridin-1-yl)-3-(^2H3)methyl-9-methyl-3,4,7,15-tetraazatricyclo[12.3.1.0^2,6]octadeca-1(18),2(6),4,14,16-pentaen-8-one] | 0.1 | 7 |
| C[C@@H]1CCC[C@H](N2CCC(c3cc(Cl)ccc3-n3cc(Cl)nn3)=CC2=O)c2cccc(n2)-c2c(cnn2C)NC1=O [Example 43, (9R,13S)-13-{4-[5-chloro-2-(4-chloro-1H-1,2,3-triazol-1-yl)phenyl]-6-oxo-1,2,3,6-tetrahydropyridin-1-yl}-3,9-dimethyl-3,4,7,18-tetraazatricyclo[12.3.1.0^2,6]octadeca-1(18),2(6),4,14,16-pentaen-8-one] | 4.1 | 110 |
| C[C@@H]1CCC[C@H](n2ccc(-c3c(Cl)ccc(Cl)c3F)cc2=O)c2cc(ccn2)-c2c(cnn2C)NC1=O [Example 44, (9R,13S)-13-[4-(3,6-dichloro-2-fluorophenyl)-2-oxo-1,2-dihydropyridin-1-yl]-3,9-dimethyl-3,4,7,15-tetraazatricyclo[12.3.1.0^2,6]octadeca-1(18),2(6),4,14,16-pentaen-8-one] | 2.2 | 5.7 |
| CCn1ncc2c1-c1ccnc(c1)[C@@H](N1CCC(c3c(F)ccc(Cl)c3F)=CC1=O)CCC[C@@H](C)C(=O)N2 [Example 45, (9R,13S)-13-[4-(3-chloro-2,6-difluorophenyl)-6-oxo-1,2,3,6-tetrahydropyridin-1-yl]-3-ethyl-9-methyl-3,4,7,15-tetraazatricyclo[12.3.1.0^2,6]octadeca-1(18),2(6),4,14,16-pentaen-8-one] | 13 | 54 |
| CC(=O)c1ccc(Cl)c(F)c1C1=CC(=O)N([C@H]2CCC[C@@H](C)C(=O)Nc3cnn(C)c3-c3ccnc2c3)CC1 [Example 46, (9R,13S)-13-[4-(6-acetyl-3-chloro-2-fluorophenyl)-6-oxo-1,2,3,6-tetrahydropyridin-1-yl]-3,9-dimethyl-3,4,7,15-tetraazatricyclo[12.3.1.0^2,6]octadeca-1(18),2(6),4,14,16-pentaen-8-one] | 3.5 | 46 |
| C[C@@H]1CCC[C@H](N2CCC(c3c(C(F)(F)F)ccc(Cl)c3F)=CC2=O)c2cc(ccn2)-c2nn(-c3cncnc3)cc2NC1=O [Example 47, (9R,13S)-13-{4-[3-chloro-2-fluoro-6-(trifluoromethyl)phenyl]-6-oxo-1,2,3,6-tetrahydropyridin-1-yl}-9-methyl-4-(pyrimidin-5-yl)-3,4,7,15-tetraazatricyclo[12.3.1.0^2,6]octadeca-1(18),2,5,14,16-pentaen-8-one] | 5.4 | 13 |
| C[C@@H]1CCC[C@H](N2CCC(c3cc(Cl)ccc3-n3cc(Cl)nn3)=CC2=O)c2cccc(c2)-c2c(cnn2C)NC1=O [Example 48, (9R,13S)-13-{4-[5-chloro-2-(4-chloro-1H-1,2,3-triazol-1-yl)phenyl]-6-oxo-1,2,3,6-tetrahydropyridin-1-yl}-3,9-dimethyl-3,4,7-triazatricyclo[12.3.1.0^2,6]octadeca-1(18),2(6),4,14,16-pentaen-8-one] | 0.13 | 5.5 |
| C[C@@H]1CCC[C@H](N2CCC(c3c(C(F)(F)F)ccc(Cl)c3F)=CC2=O)c2cccc(c2)-c2c(cnn2C)NC1=O [Example 49, (9R,13S)-13-{4-[3-chloro-2-fluoro-6-(trifluoromethyl)phenyl]-6-oxo-1,2,3,6-tetrahydropyridin-1-yl}-3,9-dimethyl-3,4,7-triazatricyclo[12.3.1.0^2,6]octadeca-1(18),2(6),4,14,16-pentaen-8-one] | 3.2 | 69 |
| C[C@H]1C(=O)Nc2cnn(C)c2-c2cc(F)cc(c2)[C@@H](N2CCC(c3cc(Cl)ccc3-n3cc(Cl)nn3)=CC2=O)CCC1F (stereo partly drawn) [Example 50, (9S,13S)-13-{4-[5-chloro-2-(4-chloro-1H-1,2,3-triazol-1-yl)phenyl]-6-oxo-1,2,3,6-tetrahydropyridin-1-yl}-10,16-difluoro-3,9-dimethyl-3,4,7-triazatricyclo[12.3.1.0^2,6]octadeca-1(18),2(6),4,14,16-pentaen-8-one] | 0.1 | 8 |
| [2H]C([2H])([2H])n1ncc2c1-c1cccc(c1)[C@@H](N1CCC(c3cc(Cl)ccc3-n3cc(Cl)nn3)=CC1=O)CCC[C@@H](C)C(=O)N2 [Example 51, (9R,13S)-13-{4-[5-chloro-2-(4-chloro-1H-1,2,3-triazol-1-yl)phenyl]-6-oxo-1,2,3,6-tetrahydropyridin-1-yl}-3-(^2H3)methyl-9-methyl-3,4,7-triazatricyclo[12.3.1.0^2,6]octadeca-1(18),2(6),4,14,16-pentaen-8-one] | 0.18 | 5 |
| C[C@@H]1CCC[C@H](N2CCC(c3cc(Cl)ccc3-n3cc(Cl)nn3)=CC2=O)c2cc(ccn2)-c2c(cnn2CC(F)F)NC1=O [Example 52, (9R,13S)-13-{4-[5-chloro-2-(4-chloro-1H-1,2,3-triazol-1-yl)phenyl]-6-oxo-1,2,3,6-tetrahydropyridin-1-yl}-3-(2,2-difluoroethyl)-9-methyl-3,4,7,15-tetraazatricyclo[12.3.1.0^2,6]octadeca-1(18),2(6),4,14,16-pentaen-8-one] | 0.76 | 22 |
| C[C@@H]1CCC[C@H](N2CCC(c3cc(Cl)ccc3-n3ccnn3)=CC2=O)c2cc(ccn2)-c2c(cnn2C(F)F)NC1=O [Example 53, (9R)-13-{4-[5-chloro-2-(1H-1,2,3-triazol-1-yl)phenyl]-6-oxo-1,2,3,6-tetrahydropyridin-1-yl}-3-(difluoromethyl)-9-methyl-3,4,7,15-tetraazatricyclo[12.3.1.0^2,6]octadeca-1(18),2(6),4,14,16-pentaen-8-one] | 0.87 | 37 |
